# Key:
# Assay type in all cases: biochemical
# [1] = target: T1, LCK kinase domain (Homo sapiens, UniProt P06239); assay: In vitro kinase assay (HITHUNTER), LCK; details: Table 2
# T1 construct: The kinase domains of BTK, LCK and ERK were expressed as recombinant purified proteins; made in house
# Description: (§1) Similarly, commercially available reagents such as HITHUNTER™ were used to evaluate the effect of compounds on the activity of additional kinases. The kinase domains of BTK, LCK and ERK were expressed as recombinant purified proteins were used for these studies.
# [2] = target: T2, BTK kinase domain (Homo sapiens, UniProt Q06187); assay: In vitro kinase assay (HITHUNTER), BTK; details: Table 2
# T2 construct: The kinase domains of BTK, LCK and ERK were expressed as recombinant purified proteins; made in house
# T2 sequence (Q06187 402-655 limits assumed): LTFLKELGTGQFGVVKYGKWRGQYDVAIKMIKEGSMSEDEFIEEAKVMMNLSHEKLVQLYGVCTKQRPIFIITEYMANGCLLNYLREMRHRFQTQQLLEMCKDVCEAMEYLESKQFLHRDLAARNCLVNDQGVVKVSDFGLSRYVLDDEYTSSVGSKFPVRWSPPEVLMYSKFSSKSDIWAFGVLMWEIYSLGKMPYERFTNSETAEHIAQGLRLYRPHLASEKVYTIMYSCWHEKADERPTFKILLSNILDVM
# Description: as §1
# [3] = target: T3, ITK kinase domain (Homo sapiens, UniProt Q08881); assay: In vitro kinase assay (HITHUNTER enzyme fragment complementation), ITK; details: Table 2; read-out: IC50 ITK
# T3 construct: N-terminally His-tagged ITK kinase domain (amino acids 352-617); His (N); made in house
# T3 sequence (Q08881 352-617): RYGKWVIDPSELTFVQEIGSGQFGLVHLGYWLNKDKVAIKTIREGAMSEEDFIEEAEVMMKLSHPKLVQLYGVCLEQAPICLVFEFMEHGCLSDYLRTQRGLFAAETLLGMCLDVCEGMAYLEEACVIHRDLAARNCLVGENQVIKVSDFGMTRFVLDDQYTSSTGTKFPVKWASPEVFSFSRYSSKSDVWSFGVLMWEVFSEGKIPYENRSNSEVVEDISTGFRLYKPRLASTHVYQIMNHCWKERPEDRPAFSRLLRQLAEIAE
# Procedure: Compounds were screened using the HITHUNTER™ enzyme fragment complementation method (Discoverx). Briefly, a recombinantly produced, N-terminally His-tagged ITK kinase domain (amino acids 352-617) was incubated with various concentrations of individual compounds. ATP and substrate were added, and the kinase reaction was allowed to proceed for 2-16 hours. Commercially available detection reagents were added and allowed to react for 2-4 hours. The reaction was evaluated by luminescence. Initial results were confirmed using full-length recombinant ITK protein.
# In order to confirm the mechanism by which compounds depicted herein interact with the kinase domain of Tec and EGFR kinases, we created a point mutant of the ITK kinase domain, whereby the key amino acid, namely C442 was mutated to alanine. The protein was expressed in a commercial baculovirus expression system using the manufacturer's general protocol (Invitrogen, pBlueBac). Protein was expressed and purified using standard techniques. […] While the activity of WT-ITK was inhibited by compounds depicted in this application, the same compounds had no activity towards the C442A mutant kinase domain.
# T1 sequence (P06239 245-498 limits assumed, species assumed): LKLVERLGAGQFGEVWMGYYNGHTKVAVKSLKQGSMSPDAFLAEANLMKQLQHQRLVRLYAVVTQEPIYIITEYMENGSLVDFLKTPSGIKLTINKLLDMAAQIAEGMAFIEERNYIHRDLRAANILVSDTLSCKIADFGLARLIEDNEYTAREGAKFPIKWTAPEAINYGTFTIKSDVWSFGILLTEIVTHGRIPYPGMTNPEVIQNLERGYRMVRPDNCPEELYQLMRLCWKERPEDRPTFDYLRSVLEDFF
SMILES,IC50 [1] [µM],IC50 [2] [µM],IC50 [3] [µM],IC50 LCK [1]
COc1cc(OC)cc(C(=O)CCN2CCOCC2)c1,12.6,0.425,0.005,
O=C(CCN1CCOCC1)c1ccc(-c2ccccc2)cc1,8.04,0.0369,0.0402,
O=C(CCN1CCOCC1)c1ccc(Cl)c(Cl)c1,34.1,0.102,0.013,
O=C(CCN1CCOCC1)c1cccc(Br)c1,,0.365,0.025,NO IC50
N#Cc1cccc(C(=O)CCN2CCOCC2)c1,413,0.643,0.029,
COc1cccc(C(=O)CCN2CCOCC2)c1,16.4,0.942,0.035,
O=C(CCN1CCOCC1)c1cccc(C(F)(F)F)c1,27.1,0.656,0.043,
O=C(CCN1CCOCC1)c1ccc(F)cc1F,,0.865,0.056,NO IC50
CC(=O)Nc1cccc(C(=O)CCN2CCOCC2)c1,18.4,1.24,0.065,
N#Cc1ccc(C(=O)CCN2CCOCC2)cc1,,0.737,0.072,NO IC50
O=C(CCN1CCOCC1)c1cccc2ccccc12,23.2,0.398,0.065,
O=C(CCN1CCOCC1)c1ccc(Oc2ccccc2)cc1,18.5,0.0941,0.091,
O=C(CCN1CCOCC1)c1cccc(Cl)c1,47.6,0.775,0.077,
O=C(CCN1CCOCC1)c1ccc2c(c1)OCCO2,20.8,1.54,0.096,
O=C(CCN1CCOCC1)c1ccc(Br)cc1,,0.232,0.104,NO IC50
O=C(CCN1CCOCC1)c1cccc(OC(F)(F)F)c1,28,0.774,0.148,

SMILES,IC50 [1] [µM],IC50 [2] [µM],IC50 [3] [µM],IC50 LCK [1]
Cc1ccc(C(=O)CCN2CCOCC2)cc1,164,1.52,0.18,
CN(C)c1cccc(C(=O)CCN2CCOCC2)c1,20.6,3.68,0.186,
O=C(CCN1CCOCC1)c1ccc(C(F)(F)F)cc1,,0.474,0.199,NO IC50
O=C(CCN1CCOCC1)c1cccc(Oc2ccccc2)c1,18.5,0.0941,0.207,
O=C(CCN1CCOCC1)c1ccc(F)c(F)c1,33.1,2.89,0.208,
O=C(CCN1CCOCC1)c1c(Cl)cccc1Cl,,0.0807,0.207,NO IC50
O=C(CCN1CCOCC1)c1ccc(OC(F)(F)F)cc1,,1.31,0.219,NO IC50
Cc1ccc(C(=O)CCN2CCOCC2)cc1C,21.2,1.48,0.223,
O=C(CCN1CCOCC1)c1ccc(Cl)cc1,25.9,0.682,0.29,
O=C(CCN1CCOCC1)c1ccccc1Br,,0.741,0.305,NO IC50
COc1ccc(C(=O)CCN2CCOCC2)c(OC)c1,21.1,3.14,0.345,
O=C(CCN1CCOCC1)c1cccc(F)c1,32.6,3.03,0.381,
Cc1ccc(C(=O)CCN2CCOCC2)c(C)c1,25.3,1.48,0.385,
O=C(CCN1CCOCC1)c1ccc2c(c1)OCO2,23.3,3.92,0.385,
CS(=O)(=O)c1ccc(C(=O)CCN2CCOCC2)cc1,23.9,0.753,0.385,

# Reference: patent US20150290200A1, “INTRACELLULAR KINASE INHIBITORS” (Pharmacyclics Inc., priority 2006, published 2015)
